Test results taken from patent US20110082130A1 (LIGAND PHARMACEUTICALS, INC., priority 2006, published 2011).

These compounds were tested against T1, chimeric human H3 receptor (Homo sapiens, UniProt Q9Y5N1) (assay: Chimeric human H3 receptor screening GTP binding assay (inhibition of histamine-stimulated GTP-gamma35S binding, Example 8)). Conditions: 4 μM of the compound, 1 μM histamine, "†" in Ki of Table II, read-out: percent inhibition of the signal obtained with 1 μM histamine.
T1 construct: made in house; host or cells: Sf9 insect cells (baculovirus); P2 membrane preparation
T1 sequence (Q9Y5N1 with tags, fused parts or gaps): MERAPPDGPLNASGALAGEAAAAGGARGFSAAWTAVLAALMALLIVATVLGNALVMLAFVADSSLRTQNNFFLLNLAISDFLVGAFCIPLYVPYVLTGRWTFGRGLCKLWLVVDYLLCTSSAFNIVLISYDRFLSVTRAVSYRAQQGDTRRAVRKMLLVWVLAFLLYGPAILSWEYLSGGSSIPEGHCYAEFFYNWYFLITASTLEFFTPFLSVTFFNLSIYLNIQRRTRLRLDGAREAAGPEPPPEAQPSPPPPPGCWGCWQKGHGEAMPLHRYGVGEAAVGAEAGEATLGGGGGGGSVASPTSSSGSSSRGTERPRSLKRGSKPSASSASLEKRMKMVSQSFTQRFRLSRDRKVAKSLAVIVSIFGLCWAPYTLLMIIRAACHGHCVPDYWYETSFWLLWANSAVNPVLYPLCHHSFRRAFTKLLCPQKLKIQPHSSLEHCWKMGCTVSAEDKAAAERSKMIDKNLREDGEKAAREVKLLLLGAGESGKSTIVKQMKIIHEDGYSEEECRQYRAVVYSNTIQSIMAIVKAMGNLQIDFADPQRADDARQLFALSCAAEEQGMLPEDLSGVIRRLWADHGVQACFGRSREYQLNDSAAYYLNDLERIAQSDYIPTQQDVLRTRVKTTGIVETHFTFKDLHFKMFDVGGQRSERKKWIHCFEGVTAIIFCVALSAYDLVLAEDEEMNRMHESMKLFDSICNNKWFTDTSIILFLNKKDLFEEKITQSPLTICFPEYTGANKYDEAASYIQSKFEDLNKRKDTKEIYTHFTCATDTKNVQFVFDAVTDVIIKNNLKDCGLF
Format: biochemical
Procedure, shortened: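 Values are percent inhibition of 1 μM histamine-stimulated GTP-gamma35S […] binding, with non-specific binding (10 μM GTP-gammaS) subtracted, by compounds tested at 4 μM. Membranes (35 μg) from Sf9 cells expressing chimeric human H3 with G-protein subunits were used in Tris pH 7.4 buffer with 10 μM GDP. Incubation lasted 60 min at room temperature, followed by filtration and scintillation counting.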

Inhibition at 4 µM, ≥ 90%:
CC(C)c1ccc(-c2ccc3c(c2)CCN(CC(=O)N2CCN(C4CCCC4)CC2)C3)cc1 [Compound 444, 2-[2-(4-cyclopentylpiperazin-1-yl)-2-oxoethyl]-6-(4-isopropylphenyl)-1,2,3,4-tetrahydroisoquinoline]
Cc1ccc(-c2ccc3c(c2)CCN(CC(=O)N2CCN(C4CCCCC4)CC2)C3)cc1 [Compound 437, 2-[2-(4-cyclohexylpiperazin-1-yl)-2-oxoethyl]-6-(4-methylphenyl)-1,2,3,4-tetrahydroisoquinoline]
CC(C)N1CCN(C(=O)CN2CCc3cc(-c4ccc5c(c4)OCCO5)ccc3C2)CC1 [Compound 385, 6-(2,3-dihydro-1,4-benzodioxin-6-yl)-2-[2-(4-isopropylpiperazin-1-yl)-2-oxoethyl]-1,2,3,4-tetrahydroisoquinoline]
CCCc1ccc(-c2ccc3c(c2)CCN(CC(=O)N2CCN(C4CCCC4)CC2)C3)cc1 [Compound 464, 2-[2-(4-cyclopentylpiperazin-1-yl)-2-oxoethyl]-6-(4-propylphenyl)-1,2,3,4-tetrahydroisoquinoline]

Same assay, conditions: Table II "Ki", symbol †, 4 μM of the compound, 1 μM histamine, read-out: percent inhibition of the signal obtained with 1 μM histamine

Inhibition at 4 µM, ≥ 90%:
CC(C)C(C)N1CCN(C(=O)CN2CCc3cc(-c4cncnc4)ccc3C2)CC1 (stereo not shown) [Compound 607, 2-{2-[4-(1,2-dimethylpropyl)piperazin-1-yl]-2-oxoethyl}-6-pyrimidin-5-yl-1,2,3,4-tetrahydroisoquinoline]
COc1ccc(-c2ccc(-c3ccc4c(c3)CCN(CC(=O)N3CCN(C5CCCC5)CC3)C4)cc2)cc1 [Compound 499, 2-[2-(4-cyclopentylpiperazin-1-yl)-2-oxoethyl]-6-(4′-methoxybiphenyl-4-yl)-1,2,3,4-tetrahydroisoquinoline]
O=C(CN1CCc2cc(-c3cc(F)cc(F)c3)ccc2C1)N1CCN(C2CCCC2)CC1 [Compound 597, 2-[2-(4-cyclopentylpiperazin-1-yl)-2-oxoethyl]-6-(3,5-difluorophenyl)-1,2,3,4-tetrahydroisoquinoline]
COc1ccccc1-c1ccc2c(c1)CCN(CC(=O)N1CCN(C3CCC3)CC1)C2 [Compound 551, 2-[2-(4-cyclobutylpiperazin-1-yl)-2-oxoethyl]-6-(2-methoxyphenyl)-1,2,3,4-tetrahydroisoquinoline]
COc1ccc(Cl)cc1-c1ccc2c(c1)CCN(CC(=O)N1CCN(C3CCCCC3)CC1)C2 [Compound 558, 6-(5-chloro-2-methoxyphenyl)-2-[2-(4-cyclohexylpiperazin-1-yl)-2-oxoethyl]-1,2,3,4-tetrahydroisoquinoline]
COc1ccc(-c2ccc3c(c2)CCN(CC(=O)N2CCN(C(C)C)CC2)C3)cc1F [Compound 505, 6-(3-fluoro-4-methoxyphenyl)-2-[2-(4-isopropylpiperazin-1-yl)-2-oxoethyl]-1,2,3,4-tetrahydroisoquinoline]
COC1CCCCC1N1C[C@@H]2C[C@H]1CN2C(=O)CN1CCc2cc(-c3cncnc3)ccc2C1 (stereo in doubt) [Compound 620, 2-{2-[(1S,4S)-5-(2-methoxycyclohexyl)-2,5-diazabicyclo[2.2.1]hept-2-yl]-2-oxoethyl}-6-pyrimidin-5-yl-1,2,3,4-tetrahydroisoquinoline]
O=C(CN1CCc2cc(-c3ccc(F)c(Cl)c3)ccc2C1)N1CCN(C2CCCC2)CC1 [Compound 580, 6-(3-chloro-4-fluorophenyl)-2-[2-(4-cyclopentylpiperazin-1-yl)-2-oxoethyl]-1,2,3,4-tetrahydroisoquinoline]
COc1ccc(C)cc1-c1ccc2c(c1)CCN(CC(=O)N1CCN(C3CCCC3)CC1)C2 [Compound 573, 2-[2-(4-cyclopentylpiperazin-1-yl)-2-oxoethyl]-6-(2-methoxy-5-methylphenyl)-1,2,3,4-tetrahydroisoquinoline]
